Source: patent EP0346744A1, “Condensed diazepinones, process for their preparation and medicaments containing them” (Dr. Karl Thomae GmbH, priority 1988, dated 1989)
Counter-ions that a name gives are not always drawn.

Assays:
[1] = system: Speichelsekretion; assay: Inhibition of pilocarpine-induced salivation in the rat; assay type: in vivo, Ratte; settings: iv; urethane-anaesthetised rat, i.v.; salivation induced by 2 mg/kg pilocarpine s.c.; dose reducing saliva volume by 50%; read-out: -log ED50 Salivation (converted)
Protocol: 2. Speichselsekretionshemmende Wirkung an der Ratte
Nach Lavy und Mulder (Arch. int. Pharmacodyn. 178. 437-445, (1969)) erhielten mit 1,2 glkg Urethan narkotisierte männliche THOM-Ratten steigende Dosen der Substanz i.v.. Die Speichelsekretion wurde durch s.c. Gabe von 2 mg kg Pilocarpin ausgelöst. Der Speichel wurde mit Fließpapier aufgesaugt, die von ihm eingenommene Fläche alle 5 Minuten planimetrisch bestimmt. Die Dosis der Substanz, die das Speichelvolumen um 50% verminderte, wurde graphisch ermittelt. Ergebnisse siehe Tabelle II.

[2] = system: Herzfrequenz; assay: Inhibition of acetylcholine effect on heart rate of the guinea pig; assay type: in vivo, Meerschweinchen; settings: for ED50: Cavia porcellus, 5 min, anaesthetised guinea pig, 10 µg/kg acetylcholine 5 min after test substance, heart rate by ECG
Protocol: (§1) 3. Hemmung der Acetylcholinwirkung auf Blase, Bronchien und Herzfrequenz des Meerschweinchens
(§2) Am narkotisierten Meerschweinchen wurden 5 Minuten nach Gabe der Prüfsubstanz 10 µg/kg Acetylcholin intravenös als auch gleichzeitig intraarteriell injiziert. Dabei wurde die Herzfrequenz durch extrakorporale Ableitung des EKG, der Ausatemwiderstand nach Konzett-Rößler und die Kontraktion der freigelegten Harnblase direkt registriert. Für die Hemmung der Acetylcholinwirkung an den untersuchten Organen wurden Dosis-Wirkungskurven aufgenommen und daraus -log EDso-Werte bestimmt. Ergebnisse siehe Tabelle III.

[3] = system: Bronchien; assay: Inhibition of acetylcholine effect on bronchi of the guinea pig; assay type: in vivo, Meerschweinchen; settings: for ED50: Cavia porcellus, 5 min, anaesthetised guinea pig, 10 µg/kg acetylcholine 5 min after test substance, expiratory resistance (Konzett-Rößler), read-out: -log ED50 Bronchien (converted)
Protocol: as §1, §2

[4] = system: Blase; assay: Inhibition of acetylcholine effect on bladder of the guinea pig; assay type: in vivo, Meerschweinchen; settings: for ED50: Cavia porcellus, 5 min, anaesthetised guinea pig, 10 µg/kg acetylcholine 5 min after test substance, contraction of exposed urinary bladder, read-out: -log ED50 Blase (converted)
Protocol: as §1, §2

[5] = system: M2; assay: Inhibition of vagal-stimulation bradycardia in the rat (M1/M2 selectivity, heart); assay type: in vivo, Ratte
Protocol: (§3) 1. M,- M2-Selektivität an der Ratte
(§4) Die angewandte Methode wurde von Hammer und Giachetti (Life Sciences 31, 2991-2998 (1982)) beschrieben. 5 Minuten nach intravenöser Injektion steigender Dosen der Substanz wurden entweder der rechte Vagus elektrisch stimuliert (Frequenz: 25 Hz; Pulsbreite: 2ms; Reizdauer: 30s; Voltzahl: supramaximal) oder 0,3 mg kg McN-A-343 in männliche THOM-Ratten intravenös injiziert. Die durch Vagusstimulation hervorgeru fene Bradykardie und der durch McN-A-343 verursachte Blutdruckanstieg wurden bestimmt. Die Dosis der Substanzen, die entweder die vagale Bradykardie (M2) oder den Blutdruckanstieg (Mi) um 50% verminderte, wurde graphisch ermittelt. Ergebnisse siehe Tabelle II.

[6] = system: M1; assay: Inhibition of McN-A-343-induced blood pressure rise in the rat (M1/M2 selectivity); assay type: in vivo, Ratte
Protocol: as §3, §4

[7] = rat, i.v., 5 min before electrical stimulation of the right vagus, dose reducing vagal bradycardia (M2) by 50%
[8] = rat, i.v., 5 min before 0,3 mg/kg McN-A-343 i.v., dose reducing blood pressure rise (M1) by 50%

`CN(CCC1CCCCCN1C)CC(=O)N1c2cc(Cl)ccc2C(=O)Nc2cccnc21` (centres unmarked) [C, 9-Chior-5,11-dihydro-11-[[[2-(1-methyl-hexahydro-1H-2-azepinyl)ethyl]methylamino]acetyl]-6H-pyrido[2,3-b][1,4]benzodiazepin-6-on-hydrochlorid] gave an ED50 [1] of 3.02 µmol/kg, an ED50 [2] of 0.055 µmol/kg and an ED50 [3] of 0.191 µmol/kg. The ED50 [4] was 0.234 µmol/kg and the “-log ED50 Herz” value [5, 7] was 7,5 Mkg^-1.

For `CN(CCC1CCCCN1C)CC(=O)N1c2ccccc2C(=O)Nc2cccnc21` (centres unmarked) [A], the ED50 [1] was 1.23 µmol/kg, the ED50 [2] was 0.0178 µmol/kg and the “-log ED50 Blutdruck” value [6, 8] was 6,34 Mkg^-1. For the same compound, the ED50 [3] was 0.0457 µmol/kg, the ED50 [4] was 0.12 µmol/kg and the “-log ED50 Herz” value [5, 7] was 7,48 Mkg^-1.

With `CN(CCC1CCCCCN1C)CC(=O)N1c2ccccc2C(=O)Nc2cccnc21` (centres unmarked) [B, 5.11-Dihydro-11-[[[2-(1-methyl-hexahydro-1 H-2-azepinyi)ethyl]methylamino]acetyl]-6H-pyrido-[2,3-b][1,4]benzodiazepin6-on] the ED50 [1] was 3.39 µmol/kg, the ED50 [2] was 0.0251 µmol/kg and the “-log ED50 Blutdruck” value [6, 8] was 6,46 Mkg^-1. For the same compound, the ED50 [3] was 0.0646 µmol/kg, the ED50 [4] was 0.269 µmol/kg and the “-log ED50 Herz” value [5, 7] was 7,41 Mkg^-1.

`Cc1ccc2c(c1)C(=O)Nc1cccnc1N2C(=O)CN(C)CCC1CCCCCN1C` (centres unmarked) [D, 5,11-Dihydro-8-methyl-11-[[[2-(1-methyl-hexahydro-1H-2-azepinyl)ethyl]methylamino]acetyl]-6H-pyrido[2,3-b][1,4]benzodiazepin-6-on] showed an ED50 [1] of 0.617 µmol/kg, an ED50 [2] of 0.0525 µmol/kg and an ED50 [3] of 0.135 µmol/kg. The ED50 [4] was 0.347 µmol/kg and the “-log ED50 Herz” value [5, 7] was 7,67 Mkg^-1.

For `CCN(CC)CC1CCCCN1CC(=O)N1c2ccccc2C(=O)Nc2cccnc21` (centres unmarked) [E, 11-[[2-[(Diethylamino)methyl]-1-piperidinyl]acetyl]-5,11-dihydro-6H-pyrido[2,3-b][1,4]-benzodiazepin-6-on, reference compound], the ED50 [1] was 10 µmol/kg and the “-log ED50 Herz” value [5, 7] was 6,42 Mkg^-1.

With `CN1C2CCC1CC(OC(=O)C(CO)c1ccccc1)C2` (racemic) [G, Atropin, reference compound] the “-log ED50 Herz” value ([2]; in vivo) was 7,70 Molkg^-1, the “-log ED50 Blutdruck” value ([6]; in vivo) was 7,34 Mkg^-1 and the “-log ED50 Bronchien” value ([3]; in vivo) was 7,96 Molkg^-1. The “-log ED50 Blase” value ([4]; in vivo) was 7,03 Molkg^-1 and the “-log ED50 Herz” value ([5]; in vivo, iv) was 7,94 Mkg^-1.
